Patent publication US6887876B2, “Benzamidine derivatives” (Ortho-McNeil Pharmaceutical, Inc., priority 2000, dated 2005)
Read-outs that look alike come from different tables or passages of the source.

Legend:
μ-opioid receptor = μ-opioid receptor (Rattus norvegicus, UniProt P33535); experiment: Rat brain μ-opioid receptor binding assay ([3H]DAMGO)
δ-opioid receptor = δ-opioid receptor (Rattus norvegicus, UniProt P33533); experiment: Rat brain δ-opioid receptor binding assay ([3H]DPDPE)
[1] = rat forebrain preparation, [3H]DAMGO, 25° C., read-out: μ-Opioid Receptor Binding (Ki nM)
[2] = rat forebrain preparation, [3H]DPDPE, 25° C., read-out: δ-Opioid Receptor Binding (Ki nM)

Chain of μ-opioid receptor (P33535 whole entry): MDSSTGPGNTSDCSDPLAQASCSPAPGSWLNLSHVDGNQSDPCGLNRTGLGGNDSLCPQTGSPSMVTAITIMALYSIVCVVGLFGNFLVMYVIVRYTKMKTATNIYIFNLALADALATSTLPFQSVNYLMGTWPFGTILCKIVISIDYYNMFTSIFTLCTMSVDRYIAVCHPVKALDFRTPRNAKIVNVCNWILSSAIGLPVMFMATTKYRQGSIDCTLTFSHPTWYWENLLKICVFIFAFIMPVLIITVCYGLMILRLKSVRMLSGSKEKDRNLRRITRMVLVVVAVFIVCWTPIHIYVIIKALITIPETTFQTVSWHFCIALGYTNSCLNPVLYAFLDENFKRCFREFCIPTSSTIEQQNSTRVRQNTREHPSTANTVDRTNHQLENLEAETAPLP
Chain of δ-opioid receptor (P33533 whole entry): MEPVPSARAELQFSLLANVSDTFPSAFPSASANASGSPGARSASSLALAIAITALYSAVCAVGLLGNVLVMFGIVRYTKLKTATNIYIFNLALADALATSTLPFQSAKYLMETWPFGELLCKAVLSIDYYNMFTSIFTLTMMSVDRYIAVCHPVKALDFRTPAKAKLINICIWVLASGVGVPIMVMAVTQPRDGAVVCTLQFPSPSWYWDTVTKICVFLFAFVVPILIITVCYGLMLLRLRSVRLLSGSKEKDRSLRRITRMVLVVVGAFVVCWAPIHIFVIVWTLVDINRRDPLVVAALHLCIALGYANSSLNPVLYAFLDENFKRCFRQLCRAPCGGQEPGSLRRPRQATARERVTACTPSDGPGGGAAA

Compound | Ki (μ-opioid receptor; [1]) | Ki (δ-opioid receptor; [2]) | Ki (μ-opioid receptor) | Ki (δ-opioid receptor)
3-[(phenylimino)[4-(2-propenyl)-1-piperazinyl]methyl]-benzoic acid methyl ester [Compound 55] | > 10000 nM | 1170 nM |  | 
4-[(4-ethenyl-1-piperazinyl)(phenylimino)methyl]-benzoic acid methyl ester [Compound 36] | > 10000 nM | 954 nM |  | 
4-[[(2-chlorophenyl)imino](4-propyl-1-piperazinyl)methyl]-N,N-diethyl-benzamide [Compound 18] | > 10000 nM | 157 nM |  | 
C=CCN1CCN(C(=Nc2ccccc2)c2ccc(C(=O)N(CC)CC)cc2)CC1 [Compound 15, N,N-diethyl-4-[(phenylimino)[4-(2-propenyl)-1-piperazinyl]methyl]-benzamide] |  |  | > 10000 nM | 859 nM
CCN(CC)C(=O)c1ccc(C(=Nc2ccccc2)N2CCN(Cc3ccccc3)CC2)cc1 [Compound 17, N,N-diethyl-4-[(phenylimino)[4-(phenylmethyl)-1-piperazinyl]methyl]-benzamide] |  |  | > 10000 nM | 212 nM
CCN(CC)C(=O)c1ccc(C(=Nc2ccccc2)N2CCN(CCc3cccs3)CC2)cc1 [Compound 22, N,N-diethyl-4-[(phenylimino)[4-[2-(2-thienyl)ethyl]-1-piperazinyl]methyl]-benzamide] |  |  | > 10000 nM | 764 nM
CCN(CC)C(=O)c1ccc(C(=Nc2ccccc2C(F)(F)F)N2CCN(Cc3ccccc3)CC2)cc1 [Compound 23, N,N-diethyl-4-[[4-(phenylmethyl)-1-piperazinyl][[2-(trifluoromethyl)phenyl]imino]methyl]-benzamide] |  |  | 1200 nM | 1.22 nM
CCN(CC)C(=O)c1ccc(C(=Nc2ccccc2C(F)(F)F)N2CCN(CCc3ccccc3)CC2)cc1 [Compound 24, N,N-diethyl-4-[[4-(2-phenylethyl)-1-piperazinyl][[2-(trifluoromethyl)phenyl]imino]methyl]-benzamide] |  |  | 1000 nM | 545 nM
CCN(CC)C(=O)c1ccc(C(=Nc2ccccc2Cl)N2CCN(CCc3ccccc3)CC2)cc1 [Compound 25, 4-[[(2-chlorophenyl)imino][4-(2-phenylethyl)-1-piperazinyl]methyl]-N,N-diethyl-benzamide] |  |  | > 10000 nM | > 10000 nM
CCN(CC)C(=O)c1ccc(C(=Nc2ccccc2C(F)(F)F)N2CCN(CCOC)CC2)cc1 [Compound 26, N,N-diethyl-4-[[4-(2-methoxyethyl)-1-piperazinyl][[2-(trifluoromethyl)phenyl]imino]methyl]-benzamide] |  |  | 2960 nM | 22.9 nM
CCN(CC)C(=O)c1ccc(C(=Nc2ccccc2Cl)N2CCN(CCOC)CC2)cc1 [Compound 27, 4-[[(2-chlorophenyl)imino][4-(2-methoxyethyl)-1-piperazinyl]methyl]-N,N-diethyl-benzamide] |  |  | > 10000 nM | 53.5 nM
CCN(CC)C(=O)c1ccc(C(=Nc2ccc(Cl)cc2)N2CCN(Cc3ccccc3)CC2)cc1 [Compound 28, 4-[[(4-chlorophenyl)imino][4-(phenylmethyl)-1-piperazinyl]methyl]-N,N-diethyl-benzamide] |  |  | > 10000 nM | 142 nM
CCN1CCN(C(=Nc2ccccc2F)c2ccc(C(=O)OC)cc2)CC1 [Compound 33, 4-[(4-ethyl-1-piperazinyl)[(3-fluorophenyl)imino]methyl]-benzoic acid methyl ester] | > 10000 nM | 230 nM |  | 
COC(=O)c1ccc(C(=Nc2ccccc2Cl)N2CCN(c3ccccc3)CC2)cc1 [Compound 35, 4-[[(2-chlorophenyl)imino](4-phenyl-1-piperazinyl)methyl]-benzoic acid methyl ester] | > 10000 nM | 7640 nM |  | 
COC(=O)c1ccc(C(=Nc2ccccc2)N2CCN(Cc3ccccc3)CC2)cc1 [Compound 37, 4-[(phenylimino)[4-(phenylmethyl)-1-piperazinyl]methyl]-benzoic acid methyl ester] | > 10000 nM | 1690 nM |  | 
COC(=O)c1ccc(C(=Nc2ccc(Cl)cc2)N2CCN(Cc3ccccc3)CC2)cc1 [Compound 38, 4-[[(4-chlorophenyl)imino][4-(phenylmethyl)-1-piperazinyl]methyl]-benzoic acid methyl ester] | > 10000 nM | 246 nM |  | 

Compound | Ki (μ-opioid receptor; [1]) | Ki (δ-opioid receptor; [2]) | Ki (μ-opioid receptor) | Ki (δ-opioid receptor)
COC(=O)c1ccc(C(=Nc2ccccc2Cl)N2CCN(Cc3ccccc3)CC2)cc1 [Compound 39, 4-[[(2-chlorophenyl)imino][4-(phenylmethyl)-1-piperazinyl]methyl]-benzoic acid methyl ester] | > 10000 nM | 2010 nM |  | 
COC(=O)c1ccc(C(=Nc2ccccc2Cl)N2CCN(CCc3ccccc3)CC2)cc1 [Compound 40, 4-[[(2-chlorophenyl)imino][4-(2-phenylethyl)-1-piperazinyl]methyl]-benzoic acid methyl ester] | > 10000 nM | > 10000 nM |  | 
COC(=O)c1ccc(C(=Nc2ccccc2C(F)(F)F)N2CCN(CCc3ccccc3)CC2)cc1 [Compound 41, 4-[[4-(2-phenylethyl)-1-piperazinyl][[2-(trifluoromethyl)phenyl]imino]methyl]-benzoic acid methyl ester] | > 10000 nM | > 10000 nM |  | 
COC(=O)c1ccc(C(=Nc2ccccc2)N2CCN(CCc3cccs3)CC2)cc1 [Compound 42, 4-[(phenylimino)[4-[2-(2-thienyl)ethyl]-1-piperazinyl]methyl]-benzoic acid methyl ester] | > 10000 nM | > 10000 nM |  | 
COC(=O)c1ccc(C(=Nc2ccccc2Cl)N2CCN(CCc3cccs3)CC2)cc1 [Compound 43, 4-[[(2-chlorophenyl)imino][4-[2-(2-thienyl)ethyl]-1-piperazinyl]methyl]-benzoic acid methyl ester] | > 10000 nM | > 10000 nM |  | 
COCCN1CCN(C(=Nc2ccccc2C(F)(F)F)c2ccc(C(=O)OC)cc2)CC1 [Compound 44, 4-[[4-(2-methoxyethyl)-1-piperazinyl][[2-(trifluoromethyl)phenyl]imino]methyl]-benzoic acid methyl ester] | 9150 nM | 82.6 nM |  | 
COCCN1CCN(C(=Nc2ccccc2Cl)c2ccc(C(=O)OC)cc2)CC1 [Compound 45, 4-[[(2-chlorophenyl)imino][4-(2-methoxyethyl)-1-piperazinyl]methyl]-benzoic acid methyl ester] | > 10000 nM | 299 nM |  | 
C=CCN1C[C@H](C)N(/C(=N/c2ccccc2)c2ccc(C(=O)OC)cc2)C[C@H]1C [Compound 51, 4-[(E)-[(2S,5R)-2,5-dimethyl-4-(2-propenyl)piperazinyl](phenylimino)methyl]-benzoic acid methyl ester] | > 10000 nM | 405 nM |  | 
C=CCN1CCN(C(=Nc2ccccc2Cl)c2cccc(C(=O)N(CC)CC)c2)CC1 [Compound 52, 3-[[(2-chlorophenyl)imino][4-(2-propenyl)-1-piperazinyl]methyl]-N,N-diethyl-benzamide] |  |  | 600 nM | 487 nM
C=CCN1CCN(C(=Nc2ccccc2)c2cccc(C(=O)N(CC)CC)c2)CC1 [Compound 53, N,N-diethyl-3-[(phenylimino)[4-(2-propenyl)-1-piperazinyl]methyl]-benzamide] | > 10000 nM | 7030 nM |  | 
C=CCN1CCN(C(=Nc2ccccc2Cl)c2cccc(C(=O)OC)c2)CC1 [Compound 54, 3-[[(2-chlorophenyl)imino][4-(2-propenyl)-1-piperazinyl]methyl]-benzoic acid methyl ester] | 1610 nM | 2150 nM |  | 
CCN(CC)C(=O)c1ccc(C(=Nc2ccccc2)N2CCCN(CCc3ccccc3)CC2)cc1 [Compound 56, N,N-diethyl-4-[[hexahydro-4-(2-phenylethyl)-1H-1,4-diazepin-1-yl](phenylimino)methyl]-benzamide] |  |  |  | 396 nM
CCN(CC)C(=O)c1ccc(C(=Nc2ccccc2Cl)N2CCCN(CCc3ccccc3)CC2)cc1 [Compound 57, 4-[[(2-chlorophenyl)imino][hexahydro-4-(2-phenylethyl)-1H-1,4-diazepin-1-yl]methyl]-N,N-diethyl-benzamide] |  |  | 618 nM | 29.6 nM
COC(=O)c1ccc(C(=Nc2ccccc2)N2CCCN(CCc3ccccc3)CC2)cc1 [Compound 58, 4-[[hexahydro-4-(2-phenylethyl)-1H-1,4-diazepin-1-yl](phenylimino)methyl]-benzoic acid methyl ester] | 232 nM | 820 nM |  | 
COC(=O)c1ccc(C(=Nc2ccccc2Cl)N2CCCN(CCc3ccccc3)CC2)cc1 [Compound 59, 4-[[(2-chlorophenyl)imino][hexahydro-4-(2-phenylethyl)-1H-1,4-diazepin-1-yl]methyl]-benzoic acid methyl ester] | 197 nM | 101 nM |  | 
